From US12180158B1, “Crystalline fumarate salts of n-ethyl-2-(5-fluoro-1H-indol-3-yl)-n-methylethan-1-amine” (Gilgamesh Pharmaceuticals, Inc., priority 2023, dated 2024)

Key:
[1] = Exposure of dry cake to humidity, solid form checked by XRPD; type: physicochemical; conditions: for XRPD pattern, dry cake exposed to humidity: monofumarate solids exposed to humidity (90% RH/30° C.), monofumarate
Method: The two different polymorphic forms of N-ethyl-2-(5-fluoro-1H-indol-3-yl)-N-methylethan-1-amine monofumarate were discovered by reactive crystallization from various solvents. These crystallization experiments were performed by subjecting the in-situ created salt, made by evaporating an ethanol solution of free base and fumaric acid, to vigorous agitation in 10 volumes of the selected solvent. The agitated mixtures were heated to 45-50° C. and cooled to room temperature as necessary to induce crystallization. Form 1 was the predominant form from acetone, and the mixed ethanol/MTBE solvent system, whereas, Form 2 was produced from IPA solvent (see Table 7 below).
The polymorphic Form 1 of N-ethyl-2-(5-fluoro-1H-indol-3-yl)-N-methylethan-1-amine hemifumarate was discovered by reactive crystallization from various solvents. These crystallization experiments were performed by subjecting the in-situ created salt, made by evaporating an ethanol solution of free base and 0.55 equivalents of fumaric acid, to vigorous agitation in 10 volumes of the selected solvent. The agitated mixtures were heated to 45-50° C. and cooled to room temperature as necessary to induce crystallization. Only one form was observed from the brief crystallization screening study, as depicted in Table 10 below.

[2] = Dynamic Vapor Sorption (DVS) isotherm; type: physicochemical; conditions: 25° C., FIG. 19
Method: Dynamic Vapor Sorption (DVS) was performed using a Q5000SA. The sample (5-15 mg) was loaded into a metallic quartz sample pan, suspended from a microbalance, and exposed to a humidified stream of nitrogen gas. Weight changes were relative to a matching empty reference pan opposite the sample, suspended from the microbalance. The sample was held for a minimum of 10 min at each level and only progressed to the next humidity level if there was <0.002% change in weight between measurements (interval: 5 s) or 45 min had elapsed (for 5-65% RH) or 2 h had elapsed (for 80 and 95% RH). The following programs were used: • 1—Equilibration at 50% RH • 2—50% to 5%. (50%, 35%, 20%, and 5%) • 3—5% to 95% (5%, 20%, 35%, 50%, 65%, 80%, and 95%) • 4—95% to 5% (95%, 80%, 65%, 50%, 35%, 20%, and 5%) • 5—5% to 50% (5%, 20%, 35%, and 50%) • 1—Equilibration at 50% RH • 2—50% to 2%. (50%, 40%, 30%, 20%, 10%, and 2%) • 3—2% to 75% (2%, 10%, 20%, 30%, 40%, 50%, 60%, 70% and 75%) • 4—75% to 2% (75%, 70%, 60%, 50%, 40%, 30%, 20%, 10% and 2%) • 5—2% to 50% (2%, 10%, 20%, 30%, 40% and 50%) • 1—Equilibration at 50% RH • 2—50% to 2%. (50%, 40%, 30%, 20%, 10%, and 2%) • 3—2% to 65% (2%, 10%, 20%, 30%, 40%, 50%, 60% and 65%) • 4—65% to 2% (65%, 60%, 50%, 40%, 30%, 20%, 10% and 2%) • 5—2% to 50% (2%, 10%, 20%, 30%, 40% and 50%). […]

Compound	XRPD pattern, dry cake exposed to humidity [1]	other results
CCN(C)CCc1c[nH]c2ccc(F)cc12.O=C(O)/C=C/C(=O)O [monofumarate Form 1, N-ethyl-2-(5-fluoro-1H-indol-3-yl)-N-methylethan-1-amine monofumarate]	Form 1	–
N-ethyl-2-(5-fluoro-1H-indol-3-yl)-N-methylethan-1-amine hemifumarate [hemifumarate Form 1]	–	XRPD pattern, Humid ([1]; hemi-fumarate dry solid from EtOH:MTBE (1:1 vol.), exposed to humidity): deliquescent
CCN(C)CCc1c[nH]c2ccc(F)cc12.Cl [hydrochloride Form 1, N-ethyl-2-(5-fluoro-1H-indol-3-yl)-N-methylethan-1-amine hydrochloride]	–	DVS isotherm behaviour (moisture sorption equilibrium) [2]: did not reach equilibrium at 75% RH
CCN(C)CCc1c[nH]c2ccc(F)cc12.O=C(O)/C=C/C(=O)O [monofumarate Form 2, N-ethyl-2-(5-fluoro-1H-indol-3-yl)-N-methylethan-1-amine monofumarate]	slowly converted to Form 1	–
